From US8715672B2, “Treatment of diseases linked to pathological kinin formation” (CSL Behring GmbH, priority 2004, dated 2014)

Assays:
wildtype mice = experiment: FeCl3-induced injury in the carotid artery after infusion of corn trypsin inhibitor; type: in vivo, mouse
Protocol: (§1) Alternatively, to test the impact of small molecule FXII inhibitors, wildtype mice were infused with the FXII inhibitor corn trypsin inhibitor (CTI, 50 μg/g body weight) 5 min prior to FeCl3-induced injury in the carotic artery (Wang et al. (2005) J. Thromb. Heamost. 3: 695-702). […] In none of the animals tested (0/4) vessel occluding thrombi developed within 30 min following application of FeCl3.

[1] = system: intrinsic coagulation pathway; experiment: aPTT of wildtype mice after infusion of corn trypsin inhibitor; type: in vivo, mouse; settings: CTI 50 μg/g body weight, n=4
Protocol: as §1
Global and single coagulation parameters were determined with an automated blood coagulation system (BCS, Dade Behring) with Dade Behring reagents according to the protocols for human samples detailed by the manufacturer. Principles of BCS assay protocols are available from Dade Behring package inserts, which can be found on Dade Behring's web site (http://www.dadebehring.com). D-dimers werde measured with the ELISA from Asserachrorn (Roche). Peripheral blood counts were determines on the Sysmex XE 2100 according to standard protocols.

With corn trypsin inhibitor [CTI] the “animals developing vessel occluding thrombi within 30 min following application of FeCl3” value (wildtype mice; CTI 50 μg/g 5 min prior to injury, carotid artery) was 0/4, the “bleeding during the surgical procedure” value (wildtype mice; CTI 50 μg/g body weight) was “did not affect bleeding” and the aPTT [1] was 62 ± 11 s.
